In test [1] the test system is Plasmodium berghei. Nature of the test: Antimalarial activity against Plasmodium berghei ANKA assessed as reduction in parasite growth measured after 24 hrs by 3[H]-hypoxanthine incorporation assay. The test is classed as functional, organism-based.
The next test relates to Plasmodium falciparum. Nature of the test: Antimalarial activity against Plasmodium falciparum NF 54 clone A1A9 assessed as reduction in parasite growth measured after 24 hrs by 3[H]-hypoxanthine incorporation assay. The class given is functional, organism-based. The settings on record: NF 54 clone A1A9, 24 h.
The subject of test [2] is Streptococcus iniae. Description: Antibacterial activity against Streptococcus iniae FP 5228 assessed as bacterial growth inhibition. The test is classed as functional.
Test [3] deals with Streptococcus iniae. Description: Potency index, ratio of oxytetracycline MIC to test compound MIC for antibacterial activity against Streptococcus iniae FP 5228. The class given is functional.
Test [4] can be described thus: Anticancer activity against human Leucocyte assessed as cell break at 2 x 10^-9M measured after 12 hrs. The test is classed as functional. The settings on record: dose 2 10^-9M.
The subject of a further test is A-375. Nature of the test: Anticancer activity against human A-375 cells assessed as cell growth inhibition measured after 24 hrs by MTT assay. The class given is functional, cell-based. The settings on record: A-375, 24 h.
For test [5], the system named is Staphylococcus aureus. Nature of the test: Antibacterial activity against Staphylococcus aureus ATCC 25923 assessed as bacterial growth inhibition. The class given is functional, organism-based.
Test [6] concerns Bacillus subtilis. Nature of the test: Antibacterial activity against Bacillus subtilis ATCC 6633 assessed as bacterial growth inhibition. The class given is functional, organism-based.
For test [7], the system named is Staphylococcus aureus. Description: Antibacterial activity against methicillin-resistant Staphylococcus aureus assessed as bacterial growth inhibition. The test is classed as functional.
For a further test, the system named is HCT-116. Description: Anticancer activity against human HCT-116 cells assessed as cell growth inhibition. The class given is functional, cell-based.
The nature of test [8]: Anticancer activity against human QGP-1 cells assessed as cell growth inhibition. The class given is functional, cell-based.
In test [9] the test system is Staphylococcus aureus. Description: Antibacterial activity against Staphylococcus aureus ATCC 29213 assessed as bacterial growth inhibition. The test is classed as functional.
The test system of another test is Escherichia coli. Description: Antibacterial activity against Escherichia coli ATCC 25922 assessed as bacterial growth inhibition. The class given is functional.
A further test relates to Bacillus thuringiensis. Nature of the test: Antibacterial activity against Bacillus thuringiensis SCSIO BT01 assessed as bacterial growth inhibition. The test is classed as functional.
Test [10] relates to Bacillus subtilis. Nature of the test: Antibacterial activity against Bacillus subtilis SCSIO BS01 assessed as bacterial growth inhibition. The class given is functional.
The next test concerns HGC-27. Description: Anticancer activity against human HGC-27 cells assessed as cell growth inhibition measured after 24 hrs by CCK-8 assay. The test is classed as functional, cell-based. The following applies: HGC-27, 24 h.
For a further test, the system named is Caco-2. Description: Anticancer activity against human Caco-2 cells assessed as cell growth inhibition measured after 72 hrs by MTT assay. The test is classed as functional, cell-based. The following applies: Caco-2, 72 h.
Test [11] has as its system Plasmodium berghei. Nature of the test: Antimalarial activity against Plasmodium berghei assessed as reduction in parasite growth. The test is classed as functional, organism-based.

pIC50: −log10 of the molar value. ≈ marks a conversion by molar mass, not a printed value.

In the case of `COc1cc(C)c(-c2ccc(O)c3c2C[C@@H](C)N[C@@H]3C)c2cccc(O)c12` [DIONCOPHYLLINE C], the values for the IC50 with Plasmodium berghei [1] and with Plasmodium falciparum were 0.015 µg/mL (≈ 0.0413 µM) and 0.014 µg/mL (≈ 0.0385 µM), respectively.
Turning to `COC(=O)C[C@@H]1Cc2cc3c(-c4c(OC)cc(O)c5c(O)c6c(cc45)C[C@@H](CC(=O)OC)OC6=O)c(OC)cc(O)c3c(O)c2C(=O)O1`, the MIC with Streptococcus iniae [2] is 0.31 µg/mL (≈ 0.468 µM). Also, in the test with Streptococcus iniae [3], the Ratio is 100.
Turning to `COC1=C(N)C(=O)c2nc(-c3nc(C(=O)O)c(C)c(-c4ccc(OC)c(OC)c4O)c3N)ccc2C1=O` [STREPTONIGRIN], the Activity in [4] is 2.82.
Regarding `COc1ccc2ccc(O)c(-c3c(Br)c(C4CC4)nn3P(=O)(c3ccccc3)c3ccccc3)c2c1`, the pIC50 in the test with A-375 is 5.59.
Take `COC(=O)[C@@]12Oc3cc(C)c(-c4c(C)cc5c(c4O)C(=O)C4C(O)=CC[C@@H](O)[C@]4(C(=O)OC)O5)c(O)c3C(=O)C1=C(O)CC[C@H]2O` (stereo in doubt; 4): the pIC50 in the test with Staphylococcus aureus [5] was 5.22; in the test on Bacillus subtilis [6], 5.68.
Take `O=C(c1ccccc1O)c1[nH]c(Cl)c(Cl)c1-n1c(Cl)c(Cl)c(Br)c1C(=O)c1ccccc1O`: the MIC90 with Staphylococcus aureus [7] worked out at 1.1 µM (≈ 0.648 µg/mL). The negative-log IC50 (pIC50) with HCT-116 was 5.05.
With `COC(=O)c1cc(-c2ccc(F)cc2)n(-n2c(C(=O)OC)cc3ccccc32)c1C`, in [8], the IC50 came to 18.7 µg/mL (≈ 46.1 µM).
Still for that read-out and setting: the figure for `COC(=O)c1cc(-c2ccccc2)n(-n2c(-c3ccc4c(c3)OCO4)cc(C(=O)OC)c2C)c1C` is 18.7 µg/mL (≈ 39.6 µM).
Turning to `O=C(c1ccccc1O)c1[nH]c(Cl)c(Cl)c1-n1c(C(=O)c2ccccc2O)cc(Cl)c1Cl`, in the test with Staphylococcus aureus [7], the MIC90 amounted to 0.61 µM (≈ 0.311 µg/mL). Further, in the test with HCT-116, the pIC50 was 5.06.
`C[C@@]1(C(=O)O)[C@@H](O)CC[C@]2(C)c3cc4c5ccccc5n(-n5c6ccccc6c6cc7c(cc65)CC[C@H]5[C@](C)(C(=O)O)[C@@H](O)CC[C@]75C)c4cc3CC[C@@H]12` (stereo in doubt; 66): the MIC worked out at 8 µg/mL (≈ 11 µM) in the test on Staphylococcus aureus [9] (Staphylococcus aureus, ATCC 29213, read-out: MIC); 8 µg/mL (≈ 11 µM) in the test with Escherichia coli (Escherichia coli, ATCC 25922, read-out: MIC); 4 µg/mL (≈ 5.52 µM) in the test on Bacillus thuringiensis (Bacillus thuringiensis, SCSIO BT01, read-out: MIC); 16 µg/mL (≈ 22.1 µM) with Bacillus subtilis [10] (Bacillus subtilis, SCSIO BS01, read-out: MIC).
For the molecule `COC(=O)[C@@]12Oc3cc(C)c(-c4c(C)cc5c(c4O)C(=O)C4C(O)=CC[C@@H](O)[C@]4(C(=O)OC)O5)c(O)c3C(=O)C1=C(O)CC[C@H]2O` (stereo in doubt; 5), the pIC50 in the test with Staphylococcus aureus [5] was 4.74; in the test on Bacillus subtilis [6], 6.15.
As to `c1ccc(C(OCCN2CCCCC2)c2ccccc2)cc1` [PERASTINE], the pIC50 in the test on HGC-27 was 4.84.
On to `CN(C)[C@@H]1C(O)=C(C(N)=O)C(=O)[C@@]2(O)C(O)=C3C(=O)c4c(O)cccc4[C@@](C)(O)[C@H]3[C@H](O)[C@@H]12` [OXYTETRACYCLINE], for which, in the test with Streptococcus iniae [2], the MIC is 40 µg/mL (≈ 86.9 µM).
Take `O=C1N[C@@H]2[C@H]3NC(=O)[C@@H]4Cc5cc6ccccc6n5-n5cc(c6ccccc65)C[C@@H]1N[C@H]2[C@@H]3N4`: the pIC50 in the test with Caco-2 is 4.12.
Take `COc1cc(C)cc2c(-c3c(O)cc(O)c4c3C[C@@H](C)N[C@@H]4C)ccc(O)c12` [KORUPENSAMINE A]: in the test on Plasmodium berghei [11], the IC50 stood at 0.56 µg/mL (≈ 1.48 µM).
`C[C@@]1(C(=O)O)[C@@H](O)CC[C@]2(C)c3cc4c5ccccc5n(-n5c6ccccc6c6cc7c(cc65)CC[C@H]5[C@](C)(C(=O)O)[C@@H](O)CC[C@]75C)c4cc3CC[C@@H]12` (stereo in doubt; 67): the MIC in the test with Staphylococcus aureus [9] came out at 16 µg/mL (≈ 22.1 µM); with Escherichia coli, 8 µg/mL (≈ 11 µM); in the test with Bacillus thuringiensis, 8 µg/mL (≈ 11 µM); with Bacillus subtilis [10], 16 µg/mL (≈ 22.1 µM).
As for `COC(=O)c1cc(-c2cccc(OC)c2)n(-n2c(-c3ccc4ccccc4c3)cc(C(=O)OC)c2C)c1C`, the IC50 in [8] was found to be 18.7 µg/mL (≈ 36.8 µM).

Source of the values: ChEMBL document CHEMBL5331048, “Recent progress toward developing axial chirality bioactive compounds” (Eur J Med Chem, 2022).
